US5994087A, “Mammalian melanocortin receptors and uses” (Oregon Health Sciences University, priority 1995, dated 1999)

Experiments:
[1] = biological target: rat MC3-R (Rattus norvegicus, UniProt P32244); experiment: Intracellular cAMP production in recombinant MC3-R expressing human 293 cells; format: cell-based
Protocol: This property of cells expressing melanocortin receptors was used to analyze expression of MC3-R in cells transfected with the expression vectors described herein as follows.
Following hormone treatment, the cells were washed twice with phosphate buffered saline and intracellular cAMP extracted by lysing the cells with 1 ml of 60% ethanol.

[2] = tested on: pigmentation; details: Ling et al. 1979; Slominski et al. 1992; cited from earlier work
[3] = tested on: central nervous system and renal afferent nerve; details: Gruber & Callahan 1989; Klein et al. 1985; Lin et al. 1987; cited from earlier work

Chain of rat MC3-R (P32244 whole entry): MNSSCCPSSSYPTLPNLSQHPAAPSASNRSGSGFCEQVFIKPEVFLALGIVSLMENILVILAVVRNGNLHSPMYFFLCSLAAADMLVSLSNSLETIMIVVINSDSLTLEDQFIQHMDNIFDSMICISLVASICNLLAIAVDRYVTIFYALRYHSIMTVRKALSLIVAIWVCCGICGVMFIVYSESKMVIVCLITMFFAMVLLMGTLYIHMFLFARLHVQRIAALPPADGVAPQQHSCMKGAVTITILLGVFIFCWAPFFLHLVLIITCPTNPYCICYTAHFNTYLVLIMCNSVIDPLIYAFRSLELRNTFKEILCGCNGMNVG

## CSCC[C@H](NC(=O)[C@@H](NC(=O)[C@@H](N)Cc1ccc(O)cc1)C(C)C)C(=O)NCC(=O)N[C@@H](Cc1c[nH]cn1)C(=O)N[C@@H](Cc1ccccc1)C(=O)N[C@@H](CCCNC(=N)N)C(=O)N[C@@H](Cc1c[nH]c2ccccc12)C(=O)N[C@@H](CC(=O)O)C(=O)N[C@@H](CCCNC(=N)N)C(=O)N[C@@H](Cc1ccccc1)C(N)=O [γ-MSH, γ-melanocyte stimulating hormone]
[1]
  potency rank among ligands (lowest EC50): most potent ligand and the one having the lowest EC50
[2]
  ability to stimulate pigmentation: little or no ability to stimulate pigmentation
[3]
  pressor, cardioaccelerator and natriuretic actions: potent pressor, cardioaccelerator and natriuretic actions
